One assay concerns TPA induction of ODC. Nature of the assay: ornithine decarboxylase (ODC) assay: inhibition of TPA induction of ODC. To be noted: concentration required to inhibit the TPA induction of ODC by 80 percent. Format: cell-based.
Assay [1] relates to RPMI 8226 cell line. The assay is described as follows: incorporation of 3H-thymidine (antiproliferative). Format: cell-based. Conditions: Homo sapiens, 96 hours, radiolabeled thymidine incorporation, read-out: TdR IC50. For orientation: Incorporation of labelled thymidine or its analogues reports DNA synthesis.
Assay [2] has as its system RPMI 8226 cell line. The assay is described as follows: viability (tetrazolium dye, mitochondrial function). It counts as cell-based. Conditions: Homo sapiens, 96 hours, read-out: MTS IC50.
Assay [3] relates to ME 180 cell line. The assay is described as follows: incorporation of 3H-thymidine (antiproliferative). Conditions: Homo sapiens, 96 hours, radiolabeled thymidine incorporation, read-out: TdR IC50. It counts as cell-based.
Assay [4] deals with ME 180 cell line. The assay is described as follows: viability (tetrazolium dye, mitochondrial function). Format: cell-based. Conditions: Homo sapiens, 96 hours, read-out: MTS IC50.
For assay [5], the system named is AML-193 cell line. The description is as above. It counts as cell-based. To be noted: Homo sapiens, 96 hours, read-out: MTS IC50.
The test system of assay [6] is AML-193 cell line. Nature of the assay: incorporation of 3H-thymidine (antiproliferative). To be noted: Homo sapiens, 96 h, read-out: TdR IC50 (nM).

One may read the IC80 as the point of the concentration-response curve where the effect stands at 80%. Read a high IC80 as a need for much substance. In general, IC50 refers to the midpoint of a concentration-inhibition curve.

In the assay with TPA induction of ODC, `CCOC(=O)/C=C(C)/C=C/C=C1/CCCc2cc3c(cc21)C(C)(C)CCC3(C)C` [Compound 101a, Ethyl (2E,4E)-3-methyl-6-[(Z)-3,4,5,6,7,8-hexahydro-5,5,8,8-tetramethyl-2H-anthracen-1-ylidene]hexa-2,4-dienoate] showed an 80% effect concentration (IC80) of 91 nM.
For the compound `CC(/C=C/C=C1/CC(C)(C)Oc2cc3c(cc21)C(C)(C)CCC3(C)C)=C\C(=O)O` [Compound 104b, (2E,4E)-3-Methyl-6-(2,3,6,7,8,9-hexahydro-2,2,6,6,9,9-hexamethylbenzo[b]-chromen-4-ylidene)-hexa-2,4-dienoic acid], the 50% inhibitory concentration (IC50) came out at 30 nM in the assay with RPMI 8226 cell line [1]; 90 nM in the assay on RPMI 8226 cell line [2]; 90 nM in the assay with ME 180 cell line [3]; 1000 nM in the assay on ME 180 cell line [4]; 1000 nM in the assay with AML-193 cell line [5]; 90 nM in the assay with AML-193 cell line [6].

The record behind these values is EP0933350A1, “Tricyclic retinoids, methods for their production and use” (LIGAND PHARMACEUTICALS INCORPORATED, priority 1994, dated 1996).
